Experimental findings from PMC12808100, “The non-catalytic DNA polymerase ε subunit is an NPF motif recognition protein” (Nature Communications, 2025) are described below.

One experiment deals with T1, EHD1 (Homo sapiens, UniProt Q9H4M9).
T1 sequence (Q9H4M9 1-534): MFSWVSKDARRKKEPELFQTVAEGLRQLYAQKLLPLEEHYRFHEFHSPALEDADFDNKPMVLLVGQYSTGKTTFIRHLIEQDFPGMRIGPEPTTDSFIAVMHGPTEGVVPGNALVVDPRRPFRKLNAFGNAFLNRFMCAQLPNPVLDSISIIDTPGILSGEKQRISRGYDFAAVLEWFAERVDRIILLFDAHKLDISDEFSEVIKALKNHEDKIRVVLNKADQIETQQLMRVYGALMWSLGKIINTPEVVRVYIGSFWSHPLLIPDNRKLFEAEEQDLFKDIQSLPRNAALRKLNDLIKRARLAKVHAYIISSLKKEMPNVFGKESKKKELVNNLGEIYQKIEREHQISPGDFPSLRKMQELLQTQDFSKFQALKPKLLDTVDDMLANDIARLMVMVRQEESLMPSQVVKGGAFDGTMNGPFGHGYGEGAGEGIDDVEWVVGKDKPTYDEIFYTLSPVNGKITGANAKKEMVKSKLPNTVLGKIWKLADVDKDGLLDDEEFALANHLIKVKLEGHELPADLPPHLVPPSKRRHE
Description: nHU-MS peptide bait, prey EHD1. Particulars: for BI: prey EHD1, MS7_Varjosalo.

In the next experiment the target is PLEK (Homo sapiens, UniProt P08567). As to the kind of experiment: nHU-MS peptide bait, prey PLEK.
Sequence of PLEK (P08567 whole entry): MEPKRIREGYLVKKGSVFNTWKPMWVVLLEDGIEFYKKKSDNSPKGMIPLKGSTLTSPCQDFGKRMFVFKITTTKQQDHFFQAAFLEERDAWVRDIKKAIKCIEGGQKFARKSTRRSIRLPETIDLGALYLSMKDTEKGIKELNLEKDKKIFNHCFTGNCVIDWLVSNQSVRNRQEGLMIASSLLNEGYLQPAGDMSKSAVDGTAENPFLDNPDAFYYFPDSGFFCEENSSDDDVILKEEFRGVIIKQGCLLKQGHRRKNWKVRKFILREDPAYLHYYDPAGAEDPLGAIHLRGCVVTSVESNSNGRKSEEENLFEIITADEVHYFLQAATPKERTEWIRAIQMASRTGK
The target of the next experiment is CCDC174 (Homo sapiens, UniProt Q6PII3). Description: nHU-MS peptide bait, prey CCDC174.
Sequence of CCDC174 (Q6PII3 whole entry): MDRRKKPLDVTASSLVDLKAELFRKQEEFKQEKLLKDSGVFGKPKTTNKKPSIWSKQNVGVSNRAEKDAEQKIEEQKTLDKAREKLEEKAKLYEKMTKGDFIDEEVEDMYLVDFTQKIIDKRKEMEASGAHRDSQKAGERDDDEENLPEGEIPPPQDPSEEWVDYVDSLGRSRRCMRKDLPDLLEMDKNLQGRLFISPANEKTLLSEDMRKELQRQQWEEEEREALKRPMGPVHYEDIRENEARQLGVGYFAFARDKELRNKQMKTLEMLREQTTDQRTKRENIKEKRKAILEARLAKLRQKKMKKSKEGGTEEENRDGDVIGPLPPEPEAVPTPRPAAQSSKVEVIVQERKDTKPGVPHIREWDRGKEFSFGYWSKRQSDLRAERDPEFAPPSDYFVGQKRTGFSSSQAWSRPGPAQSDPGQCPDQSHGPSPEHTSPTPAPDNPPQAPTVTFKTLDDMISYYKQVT
The target of the next experiment is AURKA (Homo sapiens, UniProt O14965). Description: nHU-MS peptide bait, prey AURKA.
Sequence of AURKA (O14965 whole entry): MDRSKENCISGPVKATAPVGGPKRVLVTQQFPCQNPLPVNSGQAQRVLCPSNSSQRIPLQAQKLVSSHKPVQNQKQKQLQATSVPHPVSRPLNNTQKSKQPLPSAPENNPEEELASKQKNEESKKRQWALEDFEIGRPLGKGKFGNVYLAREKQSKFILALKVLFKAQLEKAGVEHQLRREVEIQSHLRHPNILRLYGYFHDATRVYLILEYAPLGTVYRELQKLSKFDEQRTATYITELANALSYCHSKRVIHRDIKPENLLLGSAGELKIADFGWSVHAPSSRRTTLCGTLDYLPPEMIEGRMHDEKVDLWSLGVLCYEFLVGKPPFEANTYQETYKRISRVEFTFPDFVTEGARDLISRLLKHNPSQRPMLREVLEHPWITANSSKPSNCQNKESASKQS
In a further experiment the target is SSBP2 (Homo sapiens, UniProt P81877+Q86U70). As to the kind of experiment: nHU-MS peptide bait, prey SSBP2.
Sequence of SSBP2 (P81877 whole entry): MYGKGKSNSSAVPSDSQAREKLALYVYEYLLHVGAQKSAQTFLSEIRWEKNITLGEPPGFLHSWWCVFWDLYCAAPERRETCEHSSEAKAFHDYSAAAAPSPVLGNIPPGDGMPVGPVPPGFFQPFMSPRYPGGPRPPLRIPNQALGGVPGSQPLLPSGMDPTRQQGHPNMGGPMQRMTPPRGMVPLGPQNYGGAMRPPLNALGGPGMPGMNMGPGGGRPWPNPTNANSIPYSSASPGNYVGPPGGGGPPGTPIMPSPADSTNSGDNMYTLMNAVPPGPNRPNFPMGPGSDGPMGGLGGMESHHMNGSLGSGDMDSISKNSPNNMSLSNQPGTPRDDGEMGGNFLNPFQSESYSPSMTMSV
Sequence of SSBP2 (Q86U70 whole entry): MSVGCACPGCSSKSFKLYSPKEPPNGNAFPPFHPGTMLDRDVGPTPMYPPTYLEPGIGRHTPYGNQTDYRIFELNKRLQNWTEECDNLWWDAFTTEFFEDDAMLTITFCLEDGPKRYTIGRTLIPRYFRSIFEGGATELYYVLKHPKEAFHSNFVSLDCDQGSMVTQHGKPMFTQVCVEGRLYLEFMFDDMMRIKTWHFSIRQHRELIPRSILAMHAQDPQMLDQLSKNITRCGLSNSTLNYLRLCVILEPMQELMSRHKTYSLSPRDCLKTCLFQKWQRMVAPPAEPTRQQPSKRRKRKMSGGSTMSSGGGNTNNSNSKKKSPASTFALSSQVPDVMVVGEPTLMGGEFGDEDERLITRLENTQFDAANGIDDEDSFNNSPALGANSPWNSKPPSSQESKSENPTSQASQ
In a further experiment the target is SSBP4 (Homo sapiens, UniProt Q86U70+Q9BWG4). As to the kind of experiment: nHU-MS peptide bait, prey SSBP4.
Sequence of SSBP4 (Q9BWG4 whole entry): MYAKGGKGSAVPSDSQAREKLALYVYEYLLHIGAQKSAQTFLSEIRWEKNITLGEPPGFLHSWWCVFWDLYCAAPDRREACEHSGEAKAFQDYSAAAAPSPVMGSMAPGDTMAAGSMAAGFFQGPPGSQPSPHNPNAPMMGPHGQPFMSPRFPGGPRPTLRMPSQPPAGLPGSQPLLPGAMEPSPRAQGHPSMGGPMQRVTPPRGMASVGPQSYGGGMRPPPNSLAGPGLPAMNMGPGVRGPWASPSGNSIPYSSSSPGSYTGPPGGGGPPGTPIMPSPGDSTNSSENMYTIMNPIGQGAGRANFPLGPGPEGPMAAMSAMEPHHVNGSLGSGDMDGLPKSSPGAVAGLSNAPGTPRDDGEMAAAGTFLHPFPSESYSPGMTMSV
Sequence of SSBP4 (Q86U70 whole entry): as the sequence (Q86U70 whole entry) above
Another experiment deals with HSPA5 (Homo sapiens, UniProt P11021). Description: nHU-MS peptide bait, prey HSPA5.
Sequence of HSPA5 (P11021 19-654): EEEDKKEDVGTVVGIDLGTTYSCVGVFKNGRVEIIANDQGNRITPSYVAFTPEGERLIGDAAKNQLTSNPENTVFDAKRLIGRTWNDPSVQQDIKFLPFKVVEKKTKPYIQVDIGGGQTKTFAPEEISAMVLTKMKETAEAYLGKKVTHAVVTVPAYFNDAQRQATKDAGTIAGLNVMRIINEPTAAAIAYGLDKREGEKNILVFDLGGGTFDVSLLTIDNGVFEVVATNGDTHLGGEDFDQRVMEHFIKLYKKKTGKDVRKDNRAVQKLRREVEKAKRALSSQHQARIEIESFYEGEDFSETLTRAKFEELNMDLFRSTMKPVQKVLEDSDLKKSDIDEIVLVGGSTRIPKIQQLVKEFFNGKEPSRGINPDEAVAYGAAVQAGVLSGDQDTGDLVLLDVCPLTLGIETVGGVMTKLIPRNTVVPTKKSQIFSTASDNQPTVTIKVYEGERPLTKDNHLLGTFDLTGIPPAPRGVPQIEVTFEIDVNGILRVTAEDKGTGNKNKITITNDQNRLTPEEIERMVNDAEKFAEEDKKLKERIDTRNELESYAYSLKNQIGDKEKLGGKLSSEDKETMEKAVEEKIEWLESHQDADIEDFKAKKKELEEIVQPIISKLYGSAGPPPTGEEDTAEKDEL
The next experiment deals with T2, PPP2R2A (Homo sapiens, UniProt P63151).
T2 sequence (P63151 1-447): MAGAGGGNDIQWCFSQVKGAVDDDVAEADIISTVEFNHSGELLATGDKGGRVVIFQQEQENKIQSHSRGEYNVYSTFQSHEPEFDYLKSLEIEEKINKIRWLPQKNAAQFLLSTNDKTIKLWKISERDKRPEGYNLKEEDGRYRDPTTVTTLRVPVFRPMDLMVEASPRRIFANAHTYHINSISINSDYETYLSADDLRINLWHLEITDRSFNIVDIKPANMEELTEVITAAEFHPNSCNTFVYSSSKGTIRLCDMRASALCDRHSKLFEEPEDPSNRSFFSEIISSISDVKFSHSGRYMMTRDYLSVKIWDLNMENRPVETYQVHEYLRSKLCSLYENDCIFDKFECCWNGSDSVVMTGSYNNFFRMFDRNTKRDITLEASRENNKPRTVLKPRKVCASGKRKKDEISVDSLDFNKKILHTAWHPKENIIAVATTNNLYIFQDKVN
Description: nHU-MS peptide bait, prey PPP2R2A. The conditions noted are these: for Kd: pKapp.

Residues, ends and D or L forms follow the SMILES beside them.

As usually defined, the Kd is the equilibrium constant for the complex coming apart.

As for `CC[C@H](C)[C@H](NC(=O)[C@@H](N)CCCNC(=N)N)C(=O)N1CCC[C@H]1C(=O)N[C@H](C(=O)N[C@@H](CC(C)C)C(=O)N[C@@H](CC(N)=O)C(=O)N1CCC[C@H]1C(=O)N[C@@H](Cc1ccccc1)C(=O)N[C@@H](CCC(=O)O)C(=O)N[C@@H](CO)C(=O)N1CCC[C@H]1C(=O)N[C@@H](CO)C(=O)N[C@@H](CC(=O)O)C(=O)N[C@@H](Cc1ccc(O)cc1)C(=O)N[C@@H](CO)C(=O)N[C@@H](CC(N)=O)C(=O)N[C@@H](CC(C)C)C(=O)N[C@@H](Cc1c[nH]cn1)C(=O)N[C@@H](CCC(=O)O)C(=O)N[C@@H](CCC(N)=O)C(=O)N[C@H](C(N)=O)[C@@H](C)O)C(C)C` [BORA] (H-RIPVLNPFESPSDYSNLHEQT-NH2), the dissociation constant (Kd) was 39.4 µM at EHD1, 9.44 µM at PLEK and 10.9 µM on CCDC174. Moreover, the BI at EHD1 is given as 0.2025; at PLEK (prey PLEK, MS7_Varjosalo), 0.5145; on CCDC174 (prey CCDC174, MS7_Varjosalo), 0.4787.

On to `CSCC[C@H](NC(=O)[C@@H]1CCCN1C(=O)[C@@H](NC(=O)[C@@H]1CCCN1C(=O)[C@@H]1CCCN1C(=O)[C@@H]1CCCN1C(=O)[C@H](C)NC(=O)[C@H](Cc1ccccc1)NC(=O)[C@H](CCC(=O)O)NC(=O)[C@@H](NC(=O)[C@H](CC(C)C)NC(=O)[C@@H](N)Cc1c[nH]cn1)[C@@H](C)O)[C@@H](C)O)C(=O)N[C@H](C(=O)N[C@@H](CC(=O)O)C(=O)N[C@@H](Cc1c[nH]cn1)C(=O)N[C@@H](CC(C)C)C(=O)N[C@H](C(=O)N[C@@H](C)C(=O)N[C@@H](CO)C(=O)N[C@@H](CC(N)=O)C(=O)N1CCC[C@H]1C(=O)N[C@@H](Cc1ccccc1)C(=O)N[C@@H](CCC(=O)O)C(=O)N[C@@H](CC(=O)O)C(=O)N[C@@H](CC(=O)O)C(=O)N[C@@H](Cc1ccccc1)C(=O)NCC(=O)N[C@@H](C)C(=O)N1CCC[C@H]1C(=O)N[C@@H](CCCCN)C(N)=O)C(C)C)C(C)C` [PYGO2 57-86], for which the Kd at AURKA is 28.6 µM; at SSBP2 it was 18.9 µM; at SSBP4, 12.2 µM. Also, the BI at AURKA (prey AURKA, MS8_Varjosalo) came to 0.2591; at SSBP2 (prey SSBP2, MS8_Varjosalo), 0.3462; at SSBP4 (prey SSBP4, MS8_Varjosalo), 0.451.

As for `CC[C@H](C)[C@H](NC(=O)[C@H](Cc1ccccc1)NC(=O)[C@@H]1CCCN1C(=O)[C@H](CC(N)=O)NC(=O)[C@@H]1CCCN1C(=O)[C@H](CO)NC(=O)[C@H](CO)NC(=O)[C@@H](N)CCCNC(=N)N)C(=O)N[C@H](C(=O)NCC(=O)N[C@@H](CC(C)C)C(=O)N[C@H](C(=O)N[C@@H](CCCNC(=N)N)C(=O)N[C@H](C(=O)N[C@@H](CC(N)=O)C(=O)N1CCC[C@H]1C(=O)N[C@@H](Cc1ccccc1)C(=O)N[C@@H](CO)C(=O)N[C@@H](CC(=O)O)C(=O)N[C@@H](CCCNC(=N)N)C(=O)N[C@H](C(=O)N[C@@H](C)C(=O)N[C@@H](C)C(=O)N1CCC[C@H]1C(=O)NCC(=O)N[C@@H](CC(N)=O)C(=O)N1CCC[C@H]1C(=O)N[C@@H](Cc1ccccc1)C(=O)N[C@@H](CCCNC(=N)N)C(=O)N[C@@H](C)C(=O)N[C@@H](CCCCN)C(=O)N[C@@H](CO)C(N)=O)[C@@H](C)O)[C@@H](C)O)[C@@H](C)O)[C@@H](C)O` [SYNJ1_1390-1421] (H-RSSPNPFITGLTRTNPFSDRTAAPGNPFRAKS-NH2), the Kd at EHD1 is 24.3 µM; on HSPA5, 19.9 µM; on PPP2R2A (MS5_Varjosalo), 33.3 µM; on PPP2R2A (MS7_Varjosalo), 29.9 µM. Also, the BI on EHD1 came to 0.2916; at HSPA5 (prey HSPA5, MS5_Varjosalo), 0.3347; at PPP2R2A (MS5_Varjosalo), 0.2309; on PPP2R2A (MS7_Varjosalo), 0.2507.
